Experiments:
Mäuse = assay: Mortality of mice after repeated intravenous injections, 42-day observation; conditions: 30 daily i.v. injections, 5 consecutive days per block, 4 blocks, 2 treatment-free days between, Amphotericin B 4 mg/kg, xanthine derivatives 20 mg/kg each, dissolved in 5 % aqueous glucose solution
[1] = Pathophysiological serum findings (nephrotoxicity markers) in mice after repeated intravenous treatment; assay type: in vivo, Mäuse; conditions: serum of mice, treated 9 times intravenously within 11 days; pooled sera of 3 mice each; Pentoxifyllin 20 mg/kg, Amphotericin B 4 mg/kg
Method: Es wurden Mäuse im Verlauf von 11 Tagen 9 mal intravenös mit Pentoxifyllin (20 mg/kg), Amphotericin B (4 mg/kg) und Amphotericin B (4 mg/kg) in Kombination mit Pentoxifyllin (20 mg/kg) sowie mit einer Lösungsmittelkontrolle behandelt. Zur Beurteilung der Nephrotoxizität der jeweils verabreichten Substanzen wurden bei den Versuchstieren folgende Stoffe bestimmt: Creatinin: Eine gestörte Creatininclearance durch eine geschädigte Niere führt zu einem erhöhten Gehalt von Creatinin im Serum (Hypercreatininaemie) Harnstoff : Erhöhte Konzentrationen im Serum werden regelmäßig bei einer schweren Nierenfunktionsstörung beobachtet. Eine verminderte Harnstoffclearance führt zu einem erhöhten Gehalt im Serum Kalium: Da Kaliumionen bis zu 95 % durch die Nieren ausgeschieden werden, ist eine Hyperkaliaemie ein deutliches Zeichen für eine schwere Nierenfunktionsstörung. Tabelle 1

Nieren = assay: Histopathological examination of kidneys of intravenously treated mice (PAS staining); assay type: in vivo, Mäuse; conditions: mice treated i.v. over 11, 25, 39 or 53 days; Pentoxifyllin 20 mg/kg, Amphotericin B 4 mg/kg; 4 animals per time point; compared with glucose solvent control
Method: Weiterhin läßt sich die nephrotoxizitätssenkende Wirkung der Xanthinderivate durch histologische Untersuchung von Versuchstieren feststellen.
Dazu wurden […] Mäuse mit Glukose, Pentoxifyllin (20 mg/kg), Amphotericin B (4 mg/kg) oder der Kombination von Pentoxifyllin/Amphotericin B (20 mg/kg bzw. 4 mg/kg) über einen Zeitraum von 11, 25, 39 oder 53 Tagen intravenös behandelt.
Nach den angegebenen Versuchszeiten wurden je 4 Tiere getötet und Serum für serologische Untersuchungen entnommen. Die Nieren wurden in Bouin'schem Gemisch fixiert, nach üblicher histologischer Technik aufgearbeitet und PAS-gefärbt.

Compound	Mortalitäten nach einer Beobachtungszeit von 42 Tagen (Mäuse)	Creatinin [1] [µmol/L]	Harnstoff [1]	Kalium [1]	histopathologische Untersuchungen der Nieren (Nieren)
C[C@@H]1[C@H](O)[C@@H](C)/C=C/C=C/C=C/C=C/C=C/C=C/C=C/[C@H](O[C@@H]2O[C@H](C)[C@@H](O)[C@H](N)[C@@H]2O)C[C@@H]2O[C@](O)(C[C@@H](O)C[C@@H](O)[C@H](O)CC[C@@H](O)C[C@@H](O)CC(=O)O[C@H]1C)C[C@H](O)[C@H]2C(=O)O [Amphotericin B]	73 von 92 Mäusen gestorben	55	10,5 mmol/l	10,1 mmol/l	erhebliche Schäden des tubulären Apparats
CC(=O)CCCCn1c(=O)c2c(ncn2C)n(C)c1=O [Pentoxifyllin, 3,7-Dimethyl-1-(5-oxohexyl)xanthin]	0 von 25 Mäusen gestorben				
CCOCn1cnc2c1c(=O)n(CCCCC(C)(C)O)c(=O)n2C [7-Ethoxymethyl-1-(5-hydroxy-5-methylhexyl)-3-methyl-xanthin]	0 von 25 Mäusen gestorben				
Cn1c(=O)n(CCCCC(C)(C)O)c(=O)c2[nH]cnc21 [1-(5-Hydroxy-5-methyl-hexyl)-3-methylxanthin]	0 von 25 Mäusen gestorben				
